Measurements taken from US20020026052A1, “3-cyanoquinolines, 3-cyano-1,6-naphthyridines, and 3-cyano-1,7-naphthyridines as protein kinase inhibitors” (American Home Products Corporation, priority 2000, published 2002).

Row | melting point | Compound
1 | > 260 °C | COc1cc(Nc2c(C#N)cnc3cc(-c4ccc(N5CCOCC5)nc4)ccc23)c(Cl)cc1Cl [Example 185, 4-(2,4-Dichloro-5-methoxyanilino)-7-[6-(4-morpholinyl)-3-pyridinyl]-3-quinolinecarbonitrile]
2 | 197 to 199 °C | CN1CCN(Cc2ccc(-c3ccc4c(Nc5ccc(Sc6nccn6C)c(Cl)c5)c(C#N)cnc4c3)nc2)CC1 [Example 189, 4-{3-Chloro-4-[(1-methyl-1H-imidazol-2-yl)sulfanyl]anilino}-7-1-{5-[(4-methyl-1-piperazinyl)methyl]-2-pyridinyl}-3-quinolinecarbonitrile]
3 | > 250 °C | Cn1ccnc1Sc1ccc(Nc2c(C#N)cnc3cc(-c4ccc(N5CCOCC5)nc4)ccc23)cc1Cl [Example 190, 4-{3-Chloro-4-[(1-methyl-1H-imidazol-2-yl)sulfanyl]anilino}-7-[6-(4-morpholinyl)-3-pyridinyl]-3-quinolinecarbonitrile]
4 | 254 to 256 °C | CCN1CCN(c2ccc(-c3ccc4c(Nc5ccc(Sc6nccn6C)c(Cl)c5)c(C#N)cnc4c3)cn2)CC1 [Example 195, 4-{3-Chloro-4-[(1-methyl-1H-imidazol-2-yl)sulfanyl]anilino}-7-[6-(4-ethyl-1-piperazinyl)-3-pyridinyl]-3-quinolinecarbonitrile]
5 | 227 to 279 °C | CN1CCN(c2ccc(-c3ccc4c(Nc5ccc(Sc6nccn6C)c(Cl)c5)c(C#N)cnc4c3)cn2)CC1 [Example 196, 4-{3-Chloro-4-[(1-methyl-1H-irnidazol-2-yl)sulfanyl]anilino}-7-[6-(4-methyl-1-piperazinyl)-3-pyridinyl]-3-quinolinecarbonitrile]
6 | 264 to 266 °C | CCN1CCN(c2ccc(-c3ccc4c(Nc5cc(OC)c(Cl)cc5Cl)c(C#N)cnc4c3)cn2)CC1 [Example 197, 4-(2,4-Dichloro-5-methoxyanilino)-7-[6-(4-ethyl-1-piperazinyl)-3-pyridinyl]-3-quinolinecarbonitrile]
7 | 240 to 242 °C | COc1cc(Nc2c(C#N)cnc3cc(-c4ccc(N5CCN(C)CC5)nc4)ccc23)c(Cl)cc1Cl [Example 198, 4-(2,4-Dichloro-5-methoxyanilino)-7-[6-(4-methyl-1-piperazinyl)-3-pyridinyl]-3-quinolinecarbonitrile]
8 | 232 to 234 °C | Cn1ccnc1Sc1ccc(Nc2c(C#N)cnc3cc(-c4cccc(CN5CCOCC5)n4)ccc23)cc1Cl [Example 199, 4-{3-Chloro-4-[(1-methyl-1H-imidazol-2-yl)sulfanyl]anilino}-7-[6-(4-morpholinylmethyl)-2-pyridinyl]-3-quinolinecarbonitrile]
9 | 214 to 216 °C | CCN1CCN(Cc2cccc(-c3ccc4c(Nc5ccc(Sc6nccn6C)c(Cl)c5)c(C#N)cnc4c3)n2)CC1 [Example 201, 4-{3-Chloro-4-[(1-methyl-1H-imidazol-2-yl)sulfanyl]anilino}-7-{6-[(4-ethyl-1-piperazinyl)methyl]-2-pyridinyl}-3-quinolinecarbonitrile]
10 | 157 to 159 °C | CN1CCN(Cc2cccc(-c3ccc4c(Nc5ccc(Sc6nccn6C)c(Cl)c5)c(C#N)cnc4c3)n2)CC1 [Example 202, 4-{3-Chloro-4-[(1-methyl-1H-imidazol-2-yl)sulfanyl]anilino}-7-{6-[(4-methyl-1-piperazinyl)methyl]-2-pyridinyl}-3-quinolinecarbonitrile]
11 | 205 to 207 °C | Cn1ccnc1Sc1ccc(Nc2c(C#N)cnc3cc(-c4cc(CN5CCOCC5)ccn4)ccc23)cc1Cl [Example 203, 4-({3-Chloro-4-[(1-methyl-1H-imidazol-2-yl)sulfanyl]phenyl}amino)-7-[4-(4-morpholinylmethyl)-2-pyridinyl]-3-quinolinecarbonitrile]
12 | 150 to 153 °C | CCN1CCN(Cc2ccnc(-c3ccc4c(Nc5ccc(Sc6nccn6C)c(Cl)c5)c(C#N)cnc4c3)c2)CC1 [Example 205, 4-({3-Chloro-4-[(1-methyl-iH-imidazol-2-yl)sulfanyl]phenyl}amino)-7-{4-[(4-ethyl-1-piperazinyl)methyl]-2-pyridinyl}-3-quinolinecarbonitrile]
13 | 208 to 210 °C | CN1CCN(Cc2ccnc(-c3ccc4c(Nc5ccc(Sc6nccn6C)c(Cl)c5)c(C#N)cnc4c3)c2)CC1 [Example 206, 4-({3-Chloro-4-[(1-methyl-1H-imidazol-2-yl)sulfanyl]phenyl}amino)-7-{4-[(4-methyl-I -piperazinyl)methyl]-2-pyridinyl}-3-quinolinecarbonitrile]
14 | 195 °C (dec.) | Cn1ccnc1Sc1ccc(Nc2c(C#N)cnc3cc(-c4ncccc4CN4CCOCC4)ccc23)cc1Cl [Example 207, 4-({3-Chloro-4-[(1-methyl-1H-imidazol-2-yl)sulfanyl]phenyl}amino)-7-[3-(4-morpholinylmethyl)-2-pyridinyl]-3-quinolinecarbonitrile]
15 | 187 to 190 °C | CCN1CCN(Cc2cccnc2-c2ccc3c(Nc4ccc(Sc5nccn5C)c(Cl)c4)c(C#N)cnc3c2)CC1 [Example 208, 4-({3-Chloro-4-[(1-methyl-1H-imldazol-2-yl)sulfanyl]phenyl}amino)-7-{3-[(4-ethyl-1-piperazinyl)methyl]-2-pyridinyl}-3-quinolinecarbonitrile]
16 | 217 to 220 °C | CN1CCN(Cc2cccnc2-c2ccc3c(Nc4ccc(Sc5nccn5C)c(Cl)c4)c(C#N)cnc3c2)CC1 [Example 209, 4-({3-Chloro-4-[(I -methyl-1H-imidazol-2-yl)sulfanyl]phenyl}amino)-7-{3-[(4-methyl-1-piperazinyl)methyl]-2-pyridinyl}-3-quinolinecarbonitrile]
17 | 230 °C (dec.) | Cn1ccnc1Sc1ccc(Nc2c(C#N)cnc3cc(-c4ccc(N5CCC(N6CCCC6)CC5)nc4)ccc23)cc1Cl [Example 210, 4-({3-Chloro-4-[(1-methyl-H-imidazol-2-yl)sulfanyl]phenyl}amino)-7-{6-[4-(1-pyrrolidinyl)-1-piperidinyl]-3-pyridinyl}-3-quinolinecarbonitrile]
18 | 224 to 226 °C | COCCN(C)c1ccc(-c2ccc3c(Nc4ccc(Sc5nccn5C)c(Cl)c4)c(C#N)cnc3c2)cn1 [Example 212, 4-({3-Chloro-4-[(1-methyl-1H-imidazol-2-yl)sulfanyl]phenyl}amino)-7-{6-[(2-methoxyethyl) (methyl)amino]-3-pyridinyl}-3-quinolinecarbonitrile]
19 | 253 to 255 °C | CCOC(=O)C1CCN(c2ccc(-c3ccc4c(Nc5ccc(Sc6nccn6C)c(Cl)c5)c(C#N)cnc4c3)cn2)CC1 [Example 213, Ethyl 1-{5-[4-({3-chloro-4-[(1-methyl-iH-imidazol-2-yl)sulfanyl]phenyl}amino)-3-cyano-7-quinolinyl]-2-pyridinyl}-4-piperidinecarboxylate]
20 | 178 to 180 °C | Cn1ccnc1Sc1ccc(Nc2c(C#N)cnc3cc(-c4ccc(N5CCC(O)CC5)nc4)ccc23)cc1Cl [Example 214, 4-({3-Chloro-4-[(1-methyl-1H-imidazol-2-yl)sulfanyl]phenyl}amino)-7-[6-(4-hydroxy-1-piperidinyl)-3-pyridinyl]-3-quinolinecarbonitrile]
21 | 239 to 241 °C | Cn1ccnc1Sc1ccc(Nc2c(C#N)cnc3cc(-c4ccc(N5CCN(CCO)CC5)nc4)ccc23)cc1Cl [Example 215, 4-({3-Chloro-4-[(1-methyl-1H-irnidazol-2-yl)sulfanyl]phenyl}amino)-7-{6-[4-(2-hydroxyethyl)-1-piperazinyl]-3-pyridinyl}-3-quinolinecarbonitrile]
22 | 228 °C (dec.) | CN(CCO)c1ccc(-c2ccc3c(Nc4ccc(Sc5nccn5C)c(Cl)c4)c(C#N)cnc3c2)cn1 [Example 216, 4-({3-Chloro-4-[(1-methyl-1H-imidazol-2-yl)sulfanyl]phenyl}amino)-7-{6-[(2-hydroxyethyl) (methyl)amino]-3-pyridinyl}-3-quinolinecarbonitrile]
23 | 160 to 163 °C | Cn1ccnc1Sc1ccc(Nc2c(C#N)cnc3cc(-c4ccc(CN5CCN(CCO)CC5)cn4)ccc23)cc1Cl [Example 217, 4-({3-chloro-4-[(1-methyl-1H-imidazol-2-yl)sulfanyl]phenyl}amino)-7-(5-{[4-(2-hydroxy-ethyl)-1-piperazinyl]-methyl}-2-pyridinyl)-3-quinolinecarbonitrile]
24 | 220 to 222 °C | Cn1ccnc1Sc1ccc(Nc2c(C#N)cnc3cc(-c4ccc(CN5CCSCC5)cn4)ccc23)cc1Cl [Example 219]
25 | 192 to 195 °C | CCN1CCN(Cc2ccc(-c3ccc4c(Nc5ccc(Sc6nccn6C)c(Cl)c5)c(C#N)cnc4c3)cn2)CC1 [Example 220, 4-({3-Chloro-4-[(1-methyl-1H-imidazol-2-yl)sulfanyl]phenyl}amino)-7-1-{6-[(4-ethyl-1-piperazinyl)methyl]-3-pyridinyl}-3-quinolinecarbonitrile]
26 | 228 to 230 °C | CN1CCN(Cc2ccc(-c3ccc4c(Nc5ccc(Sc6nccn6C)c(Cl)c5)c(C#N)cnc4c3)cn2)CC1 [Example 221, 4-({3-Chloro-4-[(1-methyl-1H-imidazol-2-yl)sulfanyl]phenyl}amino)-7-1-{6-[(4-methyl-1-piperazinyl)methyl]-3-pyridinyl}-3-quinolinecarbonitrile]
27 | 242 to 244 °C | Cn1ccnc1Sc1ccc(Nc2c(C#N)cnc3cc(-c4ccc(CN5CCC(O)CC5)nc4)ccc23)cc1Cl [Example 223, 4-({3-Chloro-4-[(1-methyl-1H-imidazol-2-yl)sulfanyl]phenyl}amino)-7-{6-[(4-hydroxy-1-piperidinyl)methyl]-3-pyridinyl}-3-quinolinecarbonitrile]
28 | 140 to 143 °C | COc1cc(Nc2c(C#N)cnc3cc(-c4cnc(CN5CCOCC5)n4C)ccc23)c(Cl)cc1Cl [Example 226, 4-(2,4-Dichloro-5-methoxyanilino)-7-[1-methyl-2-(4-morpholinylmethyl)-1H-imidazol-5-yl]-3-quinolinecarbonitrile]
29 | 156 to 159 °C | COc1cc(Nc2c(C#N)cnc3cc(-c4cnc(CN5CCN(C)CC5)n4C)ccc23)c(Cl)cc1Cl [Example 227, 4-(2,4-Dichloro-5-methoxyanilino)-7-{1-methyl-2-[(4-methyl-1-piperazinyl)methyl]-1H-imidazol-5-yl}-3-quinolinecarbonitrile]
